Test results from ChEMBL document CHEMBL5653631, “A Potent and Selective ULK1 Inhibitor Suppresses Autophagy and Sensitizes Cancer Cells to Nutrient Stress” (iScience, 2018).

Experiments:
[1] = target: High affinity nerve growth factor receptor (Homo sapiens) (UniProt P04629); assay: Inhibition of human recombinant TRKA at 500 nM related to control ULK1
[2] = target: T1, Inhibitor of nuclear factor kappa-B kinase subunit epsilon (Homo sapiens) (UniProt Q14164); assay: Inhibition of human recombinant IKKe at 500 nM in presence of ATP by radiometric assay relative to control
T1 sequence (whole entry): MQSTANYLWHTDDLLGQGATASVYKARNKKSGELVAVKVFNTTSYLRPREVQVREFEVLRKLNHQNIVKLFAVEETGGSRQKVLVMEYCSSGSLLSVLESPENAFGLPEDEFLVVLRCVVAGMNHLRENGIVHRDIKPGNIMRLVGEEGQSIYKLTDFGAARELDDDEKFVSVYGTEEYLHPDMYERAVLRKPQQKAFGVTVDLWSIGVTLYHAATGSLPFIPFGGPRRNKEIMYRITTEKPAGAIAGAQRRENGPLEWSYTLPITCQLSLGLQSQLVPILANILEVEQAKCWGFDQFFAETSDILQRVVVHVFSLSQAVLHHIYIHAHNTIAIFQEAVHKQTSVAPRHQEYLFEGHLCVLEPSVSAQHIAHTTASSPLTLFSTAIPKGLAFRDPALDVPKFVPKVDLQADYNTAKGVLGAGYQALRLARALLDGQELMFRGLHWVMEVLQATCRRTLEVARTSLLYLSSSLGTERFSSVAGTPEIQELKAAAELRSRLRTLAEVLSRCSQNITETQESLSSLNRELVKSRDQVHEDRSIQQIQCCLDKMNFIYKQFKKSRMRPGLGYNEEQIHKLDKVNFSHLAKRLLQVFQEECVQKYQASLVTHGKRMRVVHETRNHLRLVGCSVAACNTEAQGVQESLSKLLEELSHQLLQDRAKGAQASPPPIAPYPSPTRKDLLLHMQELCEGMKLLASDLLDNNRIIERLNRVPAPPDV

[3] = target: T2, cGMP-dependent protein kinase 1 (Homo sapiens) (UniProt Q13976); assay: Inhibition of human recombinant PKG1 at 500 nM related to control ULK1
T2 sequence (whole entry): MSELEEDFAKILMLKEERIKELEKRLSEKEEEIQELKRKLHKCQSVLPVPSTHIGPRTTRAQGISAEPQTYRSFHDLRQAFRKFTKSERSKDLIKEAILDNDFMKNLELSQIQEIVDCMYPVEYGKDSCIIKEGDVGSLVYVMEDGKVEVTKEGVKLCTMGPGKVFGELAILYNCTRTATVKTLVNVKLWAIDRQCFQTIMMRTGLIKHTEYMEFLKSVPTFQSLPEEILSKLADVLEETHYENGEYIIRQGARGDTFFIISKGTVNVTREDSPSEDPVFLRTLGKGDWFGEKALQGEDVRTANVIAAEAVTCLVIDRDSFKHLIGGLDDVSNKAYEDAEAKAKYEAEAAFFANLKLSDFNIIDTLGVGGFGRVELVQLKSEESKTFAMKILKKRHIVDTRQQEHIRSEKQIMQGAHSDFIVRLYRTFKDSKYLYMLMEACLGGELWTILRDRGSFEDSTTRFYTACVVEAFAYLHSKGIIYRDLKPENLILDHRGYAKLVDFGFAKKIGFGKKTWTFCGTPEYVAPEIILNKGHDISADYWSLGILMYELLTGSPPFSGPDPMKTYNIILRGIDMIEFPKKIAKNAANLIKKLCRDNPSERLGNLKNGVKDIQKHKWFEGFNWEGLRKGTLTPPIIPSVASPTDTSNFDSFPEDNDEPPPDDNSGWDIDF

[4] = target: Vascular endothelial growth factor receptor 3 (Homo sapiens) (UniProt P35916); assay: Inhibition of human recombinant FLT4 at 15 nM related to control ULK1
Vascular endothelial growth factor receptor 3 (Homo sapiens), sequence (P35916 whole entry): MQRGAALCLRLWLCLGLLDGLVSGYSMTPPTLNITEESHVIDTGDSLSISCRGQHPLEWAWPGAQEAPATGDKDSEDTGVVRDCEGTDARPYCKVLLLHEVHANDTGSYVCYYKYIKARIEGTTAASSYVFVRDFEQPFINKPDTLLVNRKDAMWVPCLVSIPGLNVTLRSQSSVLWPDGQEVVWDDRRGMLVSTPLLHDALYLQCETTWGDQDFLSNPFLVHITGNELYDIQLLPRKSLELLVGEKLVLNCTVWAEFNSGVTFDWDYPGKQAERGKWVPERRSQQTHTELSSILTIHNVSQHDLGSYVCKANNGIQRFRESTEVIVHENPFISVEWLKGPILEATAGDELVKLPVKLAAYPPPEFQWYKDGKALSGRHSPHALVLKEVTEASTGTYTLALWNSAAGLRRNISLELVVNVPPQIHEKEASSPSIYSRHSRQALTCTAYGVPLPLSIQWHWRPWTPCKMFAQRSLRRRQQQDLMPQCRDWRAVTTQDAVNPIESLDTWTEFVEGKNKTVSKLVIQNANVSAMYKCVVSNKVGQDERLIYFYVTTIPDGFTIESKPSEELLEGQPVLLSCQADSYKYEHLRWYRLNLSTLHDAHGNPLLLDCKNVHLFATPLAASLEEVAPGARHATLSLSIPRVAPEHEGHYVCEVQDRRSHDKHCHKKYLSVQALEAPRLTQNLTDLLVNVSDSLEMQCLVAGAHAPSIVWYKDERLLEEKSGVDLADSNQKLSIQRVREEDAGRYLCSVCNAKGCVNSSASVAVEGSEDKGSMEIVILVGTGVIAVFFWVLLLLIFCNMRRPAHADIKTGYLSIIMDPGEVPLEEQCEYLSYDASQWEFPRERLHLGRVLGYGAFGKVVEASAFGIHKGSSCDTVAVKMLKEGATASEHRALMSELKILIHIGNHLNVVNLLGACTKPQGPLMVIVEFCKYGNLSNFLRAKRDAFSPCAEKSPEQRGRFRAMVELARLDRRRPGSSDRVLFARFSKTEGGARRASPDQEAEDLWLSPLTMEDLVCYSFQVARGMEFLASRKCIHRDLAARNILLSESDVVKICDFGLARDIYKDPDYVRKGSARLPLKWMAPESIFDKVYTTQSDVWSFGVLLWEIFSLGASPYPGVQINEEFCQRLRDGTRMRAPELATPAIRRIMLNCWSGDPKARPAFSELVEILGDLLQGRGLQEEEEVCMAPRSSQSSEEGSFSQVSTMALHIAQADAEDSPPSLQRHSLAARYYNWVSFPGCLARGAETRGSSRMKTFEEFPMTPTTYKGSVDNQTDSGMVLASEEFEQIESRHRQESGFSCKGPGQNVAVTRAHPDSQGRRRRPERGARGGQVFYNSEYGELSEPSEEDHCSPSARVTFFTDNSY

[5] = target: T3, MAPK/MAK/MRK overlapping kinase (Homo sapiens) (UniProt Q9UQ07); assay: Inhibition of human recombinant MOK at 15 nM related to control ULK1
T3 sequence (whole entry): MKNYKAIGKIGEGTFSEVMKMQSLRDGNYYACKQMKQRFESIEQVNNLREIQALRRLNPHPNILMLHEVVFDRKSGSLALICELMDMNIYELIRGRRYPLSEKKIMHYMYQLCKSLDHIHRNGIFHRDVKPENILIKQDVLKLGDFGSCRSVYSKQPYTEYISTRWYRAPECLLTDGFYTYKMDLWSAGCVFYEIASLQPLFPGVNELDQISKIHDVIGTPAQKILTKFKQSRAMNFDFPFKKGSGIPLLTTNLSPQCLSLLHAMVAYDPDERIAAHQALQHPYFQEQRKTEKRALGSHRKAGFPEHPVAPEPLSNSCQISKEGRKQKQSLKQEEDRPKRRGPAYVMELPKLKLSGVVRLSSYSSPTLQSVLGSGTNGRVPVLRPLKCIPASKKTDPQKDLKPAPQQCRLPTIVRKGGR

[6] = target: T4, Tyrosine-protein kinase receptor TYRO3 (Homo sapiens) (UniProt Q06418); assay: Inhibition of human recombinant TYRO3 at 15 nM related to control ULK1
T4 sequence (whole entry): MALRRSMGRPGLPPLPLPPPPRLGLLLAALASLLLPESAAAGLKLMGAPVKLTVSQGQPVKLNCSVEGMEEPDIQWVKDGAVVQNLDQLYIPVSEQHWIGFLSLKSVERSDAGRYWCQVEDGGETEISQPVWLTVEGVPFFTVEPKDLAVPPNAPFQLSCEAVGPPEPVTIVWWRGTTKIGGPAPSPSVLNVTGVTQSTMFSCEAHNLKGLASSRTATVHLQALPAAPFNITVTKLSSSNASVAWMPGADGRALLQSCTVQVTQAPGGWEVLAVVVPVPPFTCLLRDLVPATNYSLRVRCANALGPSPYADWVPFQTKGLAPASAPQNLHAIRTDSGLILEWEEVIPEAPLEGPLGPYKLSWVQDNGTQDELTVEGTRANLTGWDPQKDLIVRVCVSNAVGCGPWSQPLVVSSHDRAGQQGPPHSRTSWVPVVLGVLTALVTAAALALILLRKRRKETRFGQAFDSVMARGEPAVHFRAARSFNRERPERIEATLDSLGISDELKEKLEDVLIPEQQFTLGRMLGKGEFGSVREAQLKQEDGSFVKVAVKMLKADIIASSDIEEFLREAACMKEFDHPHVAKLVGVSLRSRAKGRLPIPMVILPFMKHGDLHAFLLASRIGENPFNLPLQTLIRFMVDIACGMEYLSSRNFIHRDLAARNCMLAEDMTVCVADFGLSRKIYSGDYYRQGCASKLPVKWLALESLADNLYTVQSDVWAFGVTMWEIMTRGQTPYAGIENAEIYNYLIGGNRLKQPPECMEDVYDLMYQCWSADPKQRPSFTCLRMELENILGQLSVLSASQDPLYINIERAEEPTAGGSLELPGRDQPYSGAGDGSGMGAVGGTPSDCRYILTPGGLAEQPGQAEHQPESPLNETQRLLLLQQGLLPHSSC

[7] = target: Death-associated protein kinase 3 (Homo sapiens) (UniProt O43293); assay: Inhibition of human recombinant DAPK3 at 15 nM in presence of ATP by radiometric assay relative to control
Death-associated protein kinase 3 (Homo sapiens), sequence (O43293 whole entry, looked up): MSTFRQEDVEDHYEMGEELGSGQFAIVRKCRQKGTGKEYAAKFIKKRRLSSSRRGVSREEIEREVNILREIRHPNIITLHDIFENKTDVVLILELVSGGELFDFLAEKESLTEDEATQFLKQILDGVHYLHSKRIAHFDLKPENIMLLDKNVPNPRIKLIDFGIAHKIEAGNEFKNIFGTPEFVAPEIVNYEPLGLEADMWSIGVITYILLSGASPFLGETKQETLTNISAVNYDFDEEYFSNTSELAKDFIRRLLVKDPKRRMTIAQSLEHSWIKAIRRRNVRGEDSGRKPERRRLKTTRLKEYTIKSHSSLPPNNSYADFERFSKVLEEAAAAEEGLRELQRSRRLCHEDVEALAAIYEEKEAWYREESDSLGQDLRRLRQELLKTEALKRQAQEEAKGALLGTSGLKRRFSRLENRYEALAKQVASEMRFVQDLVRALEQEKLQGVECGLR

High affinity nerve growth factor receptor (Homo sapiens), sequence (P04629 33-796 limits assumed): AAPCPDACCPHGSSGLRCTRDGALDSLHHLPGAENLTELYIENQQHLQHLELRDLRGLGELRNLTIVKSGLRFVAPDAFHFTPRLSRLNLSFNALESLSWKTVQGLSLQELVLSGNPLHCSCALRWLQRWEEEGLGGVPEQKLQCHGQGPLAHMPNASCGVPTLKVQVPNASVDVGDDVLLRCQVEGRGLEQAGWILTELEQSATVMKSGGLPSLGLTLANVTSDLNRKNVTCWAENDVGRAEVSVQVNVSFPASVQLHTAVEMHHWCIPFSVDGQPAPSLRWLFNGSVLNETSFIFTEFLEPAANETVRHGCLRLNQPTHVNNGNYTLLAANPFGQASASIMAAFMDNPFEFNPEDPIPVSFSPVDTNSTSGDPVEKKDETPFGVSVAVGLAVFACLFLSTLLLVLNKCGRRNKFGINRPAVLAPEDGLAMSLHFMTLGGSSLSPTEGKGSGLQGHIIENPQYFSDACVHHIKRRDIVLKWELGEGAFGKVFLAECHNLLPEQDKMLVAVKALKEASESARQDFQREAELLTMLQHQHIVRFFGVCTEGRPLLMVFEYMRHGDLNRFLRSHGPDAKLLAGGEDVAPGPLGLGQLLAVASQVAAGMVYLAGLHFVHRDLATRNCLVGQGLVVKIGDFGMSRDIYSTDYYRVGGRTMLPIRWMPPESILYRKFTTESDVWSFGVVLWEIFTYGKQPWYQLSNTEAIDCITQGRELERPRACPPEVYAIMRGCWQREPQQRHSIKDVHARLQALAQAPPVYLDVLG

Row | SMILES | fold change (FC) [1] | inhibition [2] | fold change (FC) [3] | fold change (FC) [4] | fold change (FC) [5] | fold change (FC) [6] | inhibition [7]
1 | CNC(=O)c1ccccc1Oc1nc(Nc2cc(OC)c(OC)c(OC)c2)ncc1Br | 0.7 | 0% | 0.05 | – | – | – | –
2 | CC(C)[C@H](NC(=O)c1cc(-c2cnn3cc(-c4ccc(OCCN5CCCCC5)cc4)cnc23)cs1)C(F)(F)F | – | – | – | 0.4 | 0.06 | 0 | 0%
